Assay type in all cases: cell-based, human
One assay has as its system HTT mRNA. Briefly: RT-qPCR splicing assay, HTT canonical (CJ) and alternative (AJ) junction mRNA. The note with it: Homo sapiens; for AC50: read-out: HTT AJ (AC50, increase in AJ mRNA). The essentials:
(§1)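 24 h compound exposure of A673 or K562 cells at 37 °C, 10 uM top final concentration, 3-fold steps, DMSO ≤0.25%. Splice-isoform levels determined by qPCR on cDNA from lysates, run at least in duplicate; values expressed as RQ normalized to GAPDH, GUSB or PPIA and DMSO.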

In the next assay the test system is SMN2 mRNA. Briefly: RT-qPCR splicing assay panel, SMN2 canonical junction (CJ) mRNA. The note with it: Homo sapiens, canonical junction (CJ) mRNA, RT-qPCR panel, Table 4A; read-out: SMN2, decrease in CJ mRNA levels, IC50. The essentials: as §1
The test system of a further assay is MYB mRNA. The assay is described as follows: RT-qPCR splicing assay, MYB canonical (CJ) and alternative (AJ) junction mRNA. The note with it: Homo sapiens; for AC50: read-out: MYB AJ (AC50, increase in AJ mRNA). The gist of the method: as §1
For orientation: Real-time PCR tracks product formation cycle by cycle.

In a further assay the test system is Target C mRNA. The assay is described as follows: RT-qPCR splicing assay panel, Target C canonical junction (CJ) mRNA. The note with it: Homo sapiens, canonical junction (CJ) mRNA, RT-qPCR panel, Table 4A; read-out: Target C, decrease in CJ mRNA levels, IC50. The gist of the method:
as §1

The mark [1] stands for this setting: 24 h, Table 3A, A673 or K562 cells, 24 h treatment.
Where [2] appears, read: 24 h, Table 3A, A673 or K562 cells, 24 h treatment, read-out: HTT CJ (IC50, decrease in CJ mRNA).
Setting [3] is: canonical junction (CJ) mRNA, RT-qPCR panel, Table 4A, read-out: HTT, decrease in CJ mRNA levels, IC50.
The mark [4] stands for this setting: 24 h, Table 3A, A673 or K562 cells, 24 h treatment, read-out: MYB CJ (IC50, decrease in CJ mRNA).
Where [5] appears, read: canonical junction (CJ) mRNA, RT-qPCR panel, Table 4A, read-out: MYB, decrease in CJ mRNA levels, IC50.

Where two headings read alike, the source gives them in different places. A value given as a limit tells only on which side of the number the result lay.

One may read the AC50 as the midpoint of the concentration-response curve, whichever way the signal moves. One may read the IC50 as the concentration that gives 50% inhibition. With `Cc1ncc(-c2cc(O)c(-c3ccc(N4CC[C@H](NC5CCC5)C4)nn3)cc2F)o1` [Compound 229, 2-{6-[(3S)-3-(cyclobutylamino)pyrrolidin-1-yl]pyridazin-3-yl}-4-fluoro-5-(2-methyl-1,3-oxazol-5-yl) phenol], the AC50 with HTT mRNA (setting [1]) was < 100 nM; with MYB mRNA (setting [1]), 100 to 1000 nM. Besides, the half-maximal inhibitory concentration (IC50) with HTT mRNA (setting [2]) was < 100 nM; in the assay with HTT mRNA (setting [3]), < 100 nM; in the assay with SMN2 mRNA, < 100 nM; with MYB mRNA (setting [4]), 100 to 1000 nM; in the assay on MYB mRNA (setting [5]), 100 to 1000 nM; in the assay with Target C mRNA, 100 to 1000 nM.

For the compound `COc1cc(-c2cc(O)c(-c3ccc(N4CC[C@@H](NC5CC5)C4)nn3)cc2F)cnn1` [Compound 213, 2-{6-[(3R)-3-(cyclopropylamino)pyrrolidin-1-yl]pyridazin-3-yl}-4-fluoro-5-(6-methoxypyridazin-4-yl)phenol], the AC50 with HTT mRNA (setting [1]) was 100 to 1000 nM; in the assay with MYB mRNA (setting [1]), 1000 to 10000 nM. The IC50 with HTT mRNA (setting [2]) was 100 to 1000 nM; in the assay on HTT mRNA (setting [3]) it was 100 to 1000 nM; with SMN2 mRNA, < 100 nM; in the assay with MYB mRNA (setting [4]), 100 to 1000 nM; in the assay on MYB mRNA (setting [5]), 100 to 1000 nM; with Target C mRNA, 1000 to 10000 nM.

With `COc1nc(-c2ccc(N3CC[C@@H](NC(C)(C)C)C3)nn2)ccc1-c1cnc(C)s1` [Compound 405], the AC50 with HTT mRNA (setting [1]) and in the assay with MYB mRNA (setting [1]) was < 100 nM throughout. Further, the IC50 in the assay with HTT mRNA (setting [2]), in the assay on HTT mRNA (setting [3]), in the assay with SMN2 mRNA, in the assay on MYB mRNA (setting [4]), with MYB mRNA (setting [5]) and in the assay on Target C mRNA was < 100 nM each time.

For `COc1cc(-c2ccc(-c3ccc(N4CC[C@@H](NC5CCC5)C4)nn3)c(O)c2)cnn1` [Compound 264], the concentration at half-maximal activity (AC50) in the assay on HTT mRNA (setting [1]) and with MYB mRNA (setting [1]) was 100 to 1000 nM throughout. Besides, the 50% inhibitory concentration (IC50) with HTT mRNA (setting [2]) was < 100 nM; with HTT mRNA (setting [3]) it was < 100 nM; in the assay on SMN2 mRNA, < 100 nM; in the assay on MYB mRNA (setting [4]), 100 to 1000 nM; in the assay on MYB mRNA (setting [5]), 100 to 1000 nM; in the assay with Target C mRNA, 100 to 1000 nM.

On to `Oc1cc(-c2ccnnc2)ccc1-c1ccc(N2CCC(NC3CCC3)C2)nn1` (stereo not shown) [Compound 388], for which the AC50 in the assay with HTT mRNA (setting [1]) and in the assay on MYB mRNA (setting [1]) was 1000 to 10000 nM in each case. The IC50 in the assay with HTT mRNA (setting [2]) lay within 1000 to 10000 nM; in the assay on HTT mRNA (setting [3]), 1000 to 10000 nM; in the assay on SMN2 mRNA it was 100 to 1000 nM; in the assay with MYB mRNA (setting [4]), 1000 to 10000 nM; in the assay with MYB mRNA (setting [5]) it was 1000 to 10000 nM; with Target C mRNA it was 1000 to 10000 nM.

As to `CNc1cc(-c2ccc(-c3ccc(N4CC[C@@H](NC(C)(C)C)C4)nn3)c(O)c2)ncn1` [Compound 437, 2-{6-[(3R)-3-(tert-butylamino)pyrrolidin-1-yl]pyridazin-3-yl}-5-[6-(methylamino)pyrimidin-4-yl]phenol], the AC50 in the assay on HTT mRNA (setting [1]) and with MYB mRNA (setting [1]) was < 100 nM each time. In addition, the IC50 in the assay with HTT mRNA (setting [2]), in the assay with HTT mRNA (setting [3]), in the assay on SMN2 mRNA, in the assay on MYB mRNA (setting [4]), in the assay with MYB mRNA (setting [5]) and in the assay on Target C mRNA was < 100 nM each time.

With `COc1cc(-c2cc(O)c(-c3ccc(N4CC[C@H](NC5(C)CCC5)C4)nn3)cc2F)cnn1` [Compound 299], the AC50 in the assay on HTT mRNA (setting [1]) was < 100 nM; with MYB mRNA (setting [1]), 100 to 1000 nM. Besides, the IC50 in the assay with HTT mRNA (setting [2]) was < 100 nM; in the assay on HTT mRNA (setting [3]), < 100 nM; in the assay with SMN2 mRNA it was < 100 nM; with MYB mRNA (setting [4]) it was 100 to 1000 nM; in the assay on MYB mRNA (setting [5]), 100 to 1000 nM; in the assay on Target C mRNA, 100 to 1000 nM.

Take `Cc1ncc(-c2ccc(-c3ccc(N4CCC(NC5CCC5)C4)nn3)c(O)c2)o1` (stereo not shown) [Compound 347, 2-{6-[3-(cyclobutylamino)pyrrolidin-1-yl]pyridazin-3-yl}-5-(2-methyl-1,3-oxazol-5-yl)phenol]: the AC50 in the assay with HTT mRNA (setting [1]) and with MYB mRNA (setting [1]) was 100 to 1000 nM in each case. Moreover, the IC50 is 100 to 1000 nM in the assay with HTT mRNA (setting [2]); 100 to 1000 nM with HTT mRNA (setting [3]); < 100 nM with SMN2 mRNA; 100 to 1000 nM in the assay on MYB mRNA (setting [4]); 100 to 1000 nM in the assay on MYB mRNA (setting [5]); 100 to 1000 nM with Target C mRNA.

(Values after patent US20250333397A1 (REMIX THERAPEUTICS INC., priority 2021, published 2025).)
